Where “and” joins values, the source holds several entries; their conditions need not be identical. Equal values may be shown once. Blank lines part the entries; values can stand above or below the compound they belong to.
What was measured:
[1] = instrument: DT, single field, calibrated with Agilent tune mix (Agilent)
[2] = instrument: DT, single field, calibrated with ESI Low Concentration Tuning Mix (Agilent)
[3] = instrument: TW, calibrated with polyalanine and drug standards

SMILES: Cn1c(=O)[nH]c2[nH]c(=O)n(C)c2c1=O [1,7-Dimethyluric acid]
collision cross section (N2) ([1]; [M-H]-): 134.06 Å²

SMILES: Nc1ccn([C@H]2C[C@H](O)[C@@H](COP(=O)(O)OP(=O)(O)O)O2)c(=O)n1 [2'-Deoxycytidine diphosphate]
collision cross section (N2) ([1]; [M+Na]+): 174.5 Å²
collision cross section (N2) ([1]; [M-H]-): 170.97 Å²

SMILES: Nc1nc(=O)c2ncn([C@H]3C[C@H](O)[C@@H](COP(=O)(O)O)O3)c2[nH]1 [2'-Deoxyguanosine 5'-monophosphate]
collision cross section (N2) ([1]; [M+Na-2H]-): 167.93 Å²
collision cross section (N2) ([1]; [M+Na]+): 169.7 Å²

SMILES: O=c1nc[nH]c2c1ncn2[C@H]1C[C@H](O)[C@@H](COP(=O)(O)O)O1 [2'-Deoxyinosine 5'-monophosphate]
collision cross section (N2) ([1]; [M+Na-2H]-): 161.59 Å²
collision cross section (N2) ([1]; [M+Na]+): 166.8 Å²

SMILES: CO[C@@H]1[C@H](O)[C@@H](CO)O[C@H]1n1cnc2c(N)ncnc21 [2'-O-methyladenosine]
collision cross section (N2) ([1]; [M+Na]+): 168.7 Å²
collision cross section (N2) ([1]; [M-H]-): 158.37 Å²

SMILES: Nc1[nH]c(=O)nc2nc[nH]c12 [2-Hydroxyadenine]
collision cross section (N2) ([1]; [M+H]+): 127 Å²
collision cross section (N2) ([1]; [M-H]-): 121.04 Å²

SMILES: CO[C@H]1[C@@H](O)[C@H](n2cnc3c(=O)nc(N)[nH]c32)O[C@@H]1CO [3'-O-methylguanosine]
collision cross section (N2) ([1]; [M+Na]+): 178.1 Å²
collision cross section (N2) ([1]; [M-H]-): 163.78 Å²

SMILES: Cn1c(=O)[nH]c(=O)c2c1[nH]c(=O)n2C [3,7-Dimethyluric acid]
collision cross section (N2) ([1]; [M-H]-): 133.95 Å²

SMILES: NC(=O)CCCCC1CCSS1 (centres undefined) [LIPOAMIDE]
collision cross section (N2) ([2]; [M+Na]+): 150.4 Å²
collision cross section (N2) ([3]; [M+H]+): 139.3 Å²

SMILES: CC(=O)N1CCC[C@H]1C(=O)O [N-ACETYLPROLINE]
collision cross section (N2) ([2]; [M+Na]+): 140.3 Å²
collision cross section (N2) ([2]; [M-H]-): 133.7 Å²
collision cross section (N2) ([3]; [M+Na]+): 136.9 Å²

SMILES: CC[C@H](NC(=O)CC[C@H]([NH3+])C(=O)[O-])C(=O)NCC(=O)[O-] [OPHTHALMATE]
collision cross section (N2) ([2]; [M+H]+): 164.5 Å²
collision cross section (N2) ([2]; [M+Na-2H]-): 163.7 Å²
collision cross section (N2) ([2]; [M+Na]+): 163.4 Å²
collision cross section (N2) ([2]; [M-H]-): 160.9 Å²

SMILES: O=C([O-])c1cc(=O)[nH]c(=O)[nH]1 [OROTATE]
collision cross section (N2) ([2]; [M-H]-): 121.5 Å²

SMILES: O=C1CC[C@@H](C(=O)O)N1 [OXOPROLINE]
collision cross section (N2) ([2]; [M+H]+): 130.3 Å²
collision cross section (N2) ([2]; [M-H]-): 124.1 Å²

SMILES: OC[C@H]1O[C@H](OC[C@H]2OC(O)(CO)[C@@H](O)[C@@H]2O)[C@H](O)[C@@H](O)[C@@H]1O (some centres undefined) [PALATINOSE]
collision cross section (N2) ([2]; [M+K]+): 177.6 Å²
collision cross section (N2) ([2]; [M+Na]+): 176 Å²
collision cross section (N2) ([2]; [M-H]-): 177.9 Å²

SMILES: O=C1CC[C@@H](C(=O)O)N1 [PYROGLUTAMATE]
collision cross section (N2) ([2]; [M+H]+): 130.1 Å²

SMILES: CC1=C(/C=C/C(C)=C/C=C/C(C)=C/C(=O)O)C(C)(C)CCC1 [RETINOATE]
collision cross section (N2) ([2]; [M+Na]+): 181.9 Å²

SMILES: O=C(O)[C@@H](O)[C@@H](O)[C@H](O)[C@@H](O)C(=O)O [SACCHARATE]
collision cross section (N2) ([2]; [M+K]+): 148.8 Å²
collision cross section (N2) ([2]; [M+Na-2H]-): 137.3 Å²
collision cross section (N2) ([2]; [M+Na]+): 148.3 Å²
collision cross section (N2) ([2]; [M-H]-): 133.3 Å²

SMILES: O=C(O)CCCCCCCCC(=O)O [SEBACATE]
collision cross section (N2) ([2]; [M+Na-2H]-): 146 Å²
collision cross section (N2) ([2]; [M+Na]+): 152.7 Å²

SMILES: NCCc1c[nH]c2ccc(O)cc12 [SEROTONIN]
collision cross section (N2) ([2]; [M+Na]+): 146.9 Å²

SMILES: Cc1ncc(C[n+]2csc(CCOP(=O)(O)O)c2C)c(N)n1 [THIAMINE MONOPHOSPHATE]
collision cross section (N2) ([2]; [M+H]+): 171 Å²
collision cross section (N2) ([2]; [M+Na-2H]-): 174.3 Å² and 180.2 Å²
collision cross section (N2) ([2]; [M+Na]+): 176.9 Å²

SMILES: O=c1cc[nH]c(=O)[nH]1 [URACIL]
collision cross section (N2) ([2]; [M-H]-): 112.9 Å²

SMILES: O=c1ccn([C@@H]2O[C@H](COP(=O)(O)OP(=O)(O)O)[C@@H](O)[C@H]2O)c(=O)[nH]1 [URIDINE 5'-DIPHOSPHATE]
collision cross section (N2) ([2]; [M+H]+): 176.9 Å²
collision cross section (N2) ([2]; [M+Na-2H]-): 178.6 Å²
collision cross section (N2) ([2]; [M+Na]+): 178.5 Å² and 181.7 Å²
collision cross section (N2) ([2]; [M-H]-): 172.9 Å²

SMILES: O=C(O)[C@H]1O[C@H](OP(=O)(O)OP(=O)(O)OC[C@H]2O[C@@H](n3ccc(=O)[nH]c3=O)[C@H](O)[C@@H]2O)[C@H](O)[C@@H](O)[C@@H]1O [URIDINE DIPHOSPHATE GLUCURONIC ACID]
collision cross section (N2) ([2]; [M+Na-2H]-): 204.6 Å²
collision cross section (N2) ([2]; [M+Na]+): 211 Å²
collision cross section (N2) ([2]; [M-H]-): 211.9 Å²

SMILES: C[C@H](CCC(=O)O)[C@H]1CC[C@H]2[C@@H]3[C@@H](O)C[C@@H]4C[C@H](O)CC[C@]4(C)[C@H]3CC[C@]12C [URSODEOXYCHOLATE]
collision cross section (N2) ([2]; [M+Na]+): 198.7 Å²
collision cross section (N2) ([2]; [M-H]-): 200.9 Å²

Results, then the compound that gave them:

collision cross section (N2) ([1]; [M+H]+): 141.4 Å²
collision cross section (N2) ([1]; [M-H]-): 134.25 Å²
SMILES: NC(Cc1ccccc1O)C(=O)O (racemic) [DL-O-tyrosine]

collision cross section (N2) ([1]; [M+Na]+): 144.9 Å²
collision cross section (N2) ([1]; [M-H]-): 134.48 Å²
SMILES: CC(=O)[C@@H](O)[C@H](O)COP(=O)(O)O [1-Deoxy-D-xylulose 5-phosphate]

collision cross section (N2) ([1]; [M]+): 126.4 Å²
SMILES: C[n+]1cccc(C(N)=O)c1 [1-Methylnicotinamide]

collision cross section (N2) ([1]; [M-H]-): 134.65 Å²
SMILES: O=C(O)CNC(=O)c1ccco1 [2-Furoylglycine]

collision cross section (N2) ([1]; [M-H]-): 118.65 Å²
SMILES: CC(C)C(O)C(=O)O (centres undefined) [2-Hydroxy-3-methylbutyric acid]

collision cross section (N2) ([1]; [M+Na]+): 140.9 Å²
collision cross section (N2) ([1]; [M-H]-): 128.12 Å²
SMILES: CC(C)C(O)(CC(=O)O)C(=O)O (centres undefined) [2-Isopropylmalic acid]

collision cross section (N2) ([1]; [M-H]-): 123.84 Å²
SMILES: CC(CCC(=O)O)C(=O)O (centres undefined) [2-Methylglutaric acid]

collision cross section (N2) ([1]; [M-H]-): 120.45 Å²
SMILES: O=C(O)c1ccc([O-])c(O)c1 [3,4-Dihydroxybenzoate]

collision cross section (N2) ([1]; [M-H]-): 136.11 Å²
SMILES: O=C(O)CCc1cccc(O)c1 [3-(3-Hydroxyphenyl)propanoic acid]

collision cross section (N2) ([1]; [M+H-H2O]+): 137.5 Å²
SMILES: Nc1c(O)cccc1C(=O)C[C@H](N)C(=O)O [3-Hydroxy-L-kynurenine]

collision cross section (N2) ([1]; [M-H]-): 125.4 Å²
SMILES: O=C(O)c1cccc([O-])c1 [3-Hydroxybenzoate]

collision cross section (N2) ([1]; [M-H]-): 127.46 Å²
SMILES: CC(C)[C@H](C(=O)O)[C@@H](O)C(=O)O [3-Isopropylmalate]

collision cross section (N2) ([1]; [M+H]+): 134.1 Å²
collision cross section (N2) ([1]; [M-H]-): 134.37 Å²
SMILES: Cn1cncc1C[C@H](N)C(=O)O [3-Methylhistidine]

collision cross section (N2) ([2]; [M-H]-): 128.6 Å²
SMILES: O=C(O)Cc1ccc(O)cc1 [P-HYDROXYPHENYLACETATE]

collision cross section (N2) ([2]; [M+Na]+): 138.3 Å²
collision cross section (N2) ([2]; [M-H]-): 139.4 Å²
SMILES: N[C@@H](Cc1ccccc1)C(=O)O [PHENYLALANINE]

collision cross section (N2) ([2]; [M+H]+): 133.7 Å²
collision cross section (N2) ([2]; [M+Na]+): 144.1 Å²
collision cross section (N2) ([2]; [M-H]-): 133.9 Å²
SMILES: Cc1ncc(CO)c(CN)c1O [PYRIDOXAMINE]

collision cross section (N2) ([2]; [M-H]-): 114.5 Å²
SMILES: Oc1ccccc1O [PYROCATECHOL]

collision cross section (N2) ([2]; [M+H]+): 182.9 Å²
collision cross section (N2) ([2]; [M+Na-2H]-): 180.3 Å²
collision cross section (N2) ([2]; [M+Na]+): 189 Å²
collision cross section (N2) ([2]; [M-H]-): 186.4 Å²
SMILES: Nc1ncnc2c1ncn2[C@@H]1O[C@H](CSCC[C@H](N)C(=O)O)[C@@H](O)[C@H]1O [S-ADENOSYLHOMOCYSTEINE]

collision cross section (N2) ([2]; [M+H]+): 185.7 Å²
SMILES: C[S+](CC[C@H](N)C(=O)[O-])C[C@H]1O[C@@H](n2cnc3c(N)ncnc32)[C@H](O)[C@@H]1O (some centres undefined) [S-ADENOSYLMETHIONINE]

collision cross section (N2) ([2]; [M+H]+): 200.5 Å²
collision cross section (N2) ([2]; [M+Na-2H]-): 192.4 Å²
collision cross section (N2) ([2]; [M+Na]+): 200.9 Å²
collision cross section (N2) ([2]; [M-H]-): 189 Å²
SMILES: CCCCCCSC[C@H](NC(=O)CC[C@H](N)C(=O)O)C(=O)NCC(=O)O [S-HEXYL-GLUTATHIONE]

collision cross section (N2) ([2]; [M+H]+): 135.2 Å²
collision cross section (N2) ([2]; [M+Na]+): 138.1 Å²
collision cross section (N2) ([2]; [M-H]-): 149.9 Å²
SMILES: C[Se]CCC(N)C(=O)O (centres undefined) [SELENOMETHIONINE]

collision cross section (N2) ([2]; [M-H]-): 136.3 Å²
SMILES: O=C(O)C1=C[C@@H](O)[C@@H](O)[C@H](O)C1 [SHIKIMATE]

collision cross section (N2) ([2]; [M+H]+): 124 Å²
collision cross section (N2) ([2]; [M+Na]+): 135.9 Å²
collision cross section (N2) ([3]; [M+H]+): 122.4 Å²
SMILES: C[n+]1cccc(C(=O)[O-])c1 [TRIGONELLINE]

collision cross section (N2) ([2]; [M+H]+): 145.8 Å²
collision cross section (N2) ([2]; [M+Na]+): 143.6 Å²
collision cross section (N2) ([2]; [M-H]-): 143.8 Å²
SMILES: N[C@@H](Cc1ccc(O)cc1)C(=O)O [TYROSINE]

Source: the C3SDB collision cross section collection
